Measured values as given in publication PMC7961786, “Magic Peptide: Unique Properties of the LRR11 Peptide in the Activation of Leukotriene Synthesis in Human Neutrophils” (International Journal of Molecular Sciences, 2021).

Columns and labels:
5′-biotinylated B-CpG = assay: TSM acoustic biosensor, peptide binding to immobilized B-CpG
Excerpt: To characterize the interaction of the studied synthetic ODNs with the LRR11 peptide, we applied the thickness shear mode (TSM) acoustic biosensor method, which is based on the investigation of ultrasonic waves in piezoelectric materials such as AT-cut quartz. This approach involved immobilizing a 5′-biotinylated ODN on the surface of TSM transducer covered by NeutrAvidin and then adding the LRR11 peptide. An unrelated peptide (URP) with a random primary structure ([…]) was used as a negative control. The measurement procedure was divided into several steps, in which each immobilization stage was followed by washing with an appropriate buffer solution; when peptide solutions at different concentrations (from 1 to 100 nM) were added to the surface-modified TSM transducer, a wash with Hanks buffer was used before increasing the peptide concentration.
Based on Langmuir isotherm Equation (1), (1) Δfcc=Δfsmaxc/KD+c where Δfs(c) is the frequency change at a certain peptide concentration under equilibrium conditions, (Δfs)max is the maximum frequency change, c is the peptide concentration, and KD is the equilibrium constant of dissociation, we estimated the (Δfs)max and KD values for binding of the LRR11 peptide to C-CpG and B-CpG (Table 3).
Eight MHz AT-cut piezoelectric quartz crystal transducer was obtained from CH Instruments, Austin, TX, USA. The transducer was covered on both sides with thin layers of gold that served as electrodes (working area 0.2 cm^2). Prior ODNs immobilization, the crystal was carefully cleaned with basic Piranha solution (29% NH3, 30% H2O and H2O2 with volumetric 1:5:1 ratio, respectively) for 25 min. After the thorough cleaning, the crystal was positioned between two silicon O-rings in a flow-through cell. The analyte was injected into the cell using a Genie Plus syringe pump (Kent Scientific, Torrington, CT, USA) at a flow rate of 50 μL/min. Each solution was applied until the resonance frequency stabilized. The surface of the transducer was first washed with deionized water, and then 125 μg/mL NeutrAvidin (WWR International GmbH, Vienna, Austria) solution in water was applied. Approximately 15 min were required to stabilize the signal at a constant NeutrAvidin flow rate. This was followed by washing with water to rinse out all non-chemisorbed NeutrAvidin molecules. Immobilization of ODN on the gold surface of the crystals is accomplished using avidin–biotin interactions. A 1 μM 5′-biotinylated ODN solution was injected over the neutravidin-modified surface and subsequently the crystal was washed again with water. The system was then equilibrated using Hanks buffer solution. This buffer was suitable for studying LRR11–ODN binding. Then LRR11 was used at concentrations of 1, 5, 10, 50 and 100 nM […] in Hanks buffer. After each addition of LRR11, the sensor surface was washed with Hanks buffer and LRR11 with the higher concentration was added. All binding experiments were carried out at room temperature. Buffer and sample solutions were introduced in a flow-through format. A network analyzer 8712ES (Agilent Technologies, Santa Clara, CA, USA) was used to measure the impedance properties of the sensor and determine fS and Rm.

PMNLs = assay: Phagocytosis of FITC-labeled S. typhimurium by neutrophils; type: cell-based, human; conditions: 1 µM ODN +/- 1 µM LRR11, FITC-labeled S. typhimurium 20 min; n = 3; Figure S2b
Experimental: Figure S2b. Influence of LRR11 and ODNs on phagocytic activity of neutrophils. PMNLs supplemented with 1 µM ODN +/- 1 µM LRR11, except for control samples containing HBSS/HEPES instead of ODNs, were incubated for 20 min in Eppendorf tubes at 37 °C in 5% CO2 with continuous stirring. FITC-labeled S. typhimurium were then added for next 20 min, followed by FACS analysis (excitation: 488 nm, emission: 525 nm). Both the relative amounts of PMNLs involved in phagocytosis (A, B) and the fluorescence intensities, reflecting the average number of bacteria captured per cell (C, D), were estimated. To distinguish between internalized and surface-bound bacterial cells, trypan blue at a working concentration of 1 mg/ml, was used to quench the surface FITC fluorescence caused by the attached bacteria. Thus, each series of samples was duplicated to obtain results both without (A, C) and with (B, D) TB quenching, which corresponds to the total interaction and uptake of bacteria. Averaged flow cytometry data are presented, including means ± SEM for the percentages of FITC-positive (i.e., phagocytic) cells (A, B), and mean ± SEM for fluorescence intensities of FITC-positive subpopulations (C, D) (n=3; * p < 0.05; ** p < 0.01 in comparison with corresponding controls, ns – non significant, as indicated by two-way ANOVA followed by Dunnett’s or Tukey’s multiple comparison tests). […]

## QLRKLNLSFNYQKRVSFAHLSLAPSFGSLV [LRR11, 30 amino acid peptide from leucine-rich repeat of TLR9]
5′-biotinylated B-CpG; 1, 5, 10 nM LRR11, B-CpG
  change of ∆fs at low LRR11 concentrations: not significant or small changes of ∆fs
5′-biotinylated B-CpG; LRR11-B-CpG complex, Langmuir fit, Hanks buffer, room temperature, LRR11 1-100 nM, three independent experiments
  Kd: 55.1 ± 17.4 nM
PMNLs
  effect on bacteria engulfment: LRR11 did not affect this
